Experimental data: patent US20130315825A1, “TRICYCLIC HETEROAROMATIC COMPOUNDS AS ALPHA-SYNUCLEIN LIGANDS” (Washington University, priority 2012, published 2013)
pKi: −log10 of the molar value.

How the values were obtained:
Aβ1-42 fibrils = target: T1, Aβ1-42 fibrils (Homo sapiens, UniProt P05067); assay: [125I]SIL23 competitive binding assay, Aβ1-42 fibrils; conditions: [125I]SIL23 competition, 95% confidence intervals in parentheses
T1 construct: Synthetic Aβ1-42 peptide (1 mg) (Bachem, Torrance, Calif.); purchased Bachem, Torrance, Calif; host or cells: synthetic peptide
T1 sequence (P05067 672-713 limits assumed): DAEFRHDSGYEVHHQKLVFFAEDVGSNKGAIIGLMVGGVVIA

tau fibrils = target: T2, tau fibrils (Homo sapiens, UniProt P10636); assay: [125I]SIL23 competitive binding assay, tau fibrils; conditions: [125I]SIL23 competition, 95% confidence intervals in parentheses
T2 construct: made in house; host or cells: BL21(DE3)RIL E. coli
T2 sequence (P10636 560-692): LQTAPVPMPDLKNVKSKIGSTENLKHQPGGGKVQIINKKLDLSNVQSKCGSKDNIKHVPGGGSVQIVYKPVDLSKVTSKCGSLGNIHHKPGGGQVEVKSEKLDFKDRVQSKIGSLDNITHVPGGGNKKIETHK

α-synuclein fibrils = α-synuclein fibrils (Homo sapiens, UniProt P37840); assay: ThT fluorescence saturation binding to α-synuclein fibrils; design: made in house; host or cells: BL21(DE3)RIL E. coli
Description: The maximum excitation wavelength (λex) was determined according to the fluorescent intensity-excitation wavelength curve. At (λex), the emission wavelength was scanned to get maximum emission wavelength (λem).

[1] = MicroPET study in the brain of a nonhuman primate; type: in vivo, cynomolgus monkey; conditions: monkey 5.8 kg, 8.68 mCi/6 mL injected
Description: The brain of a cynologmus monkey was scanned using a microPET scanner. The left panel is the MRI image. The middle panel is the co-registered the MRI and PET image. The right panel is the PET image. […] FIG. 74 presents a plot of the radiation in portions of the monkey brain as a function of time. […] It also has favorable clearance pharmacokinetics from the brain.

[2] = Ex vivo biodistribution in Sprague-Dawley rats; conditions: for brain uptake: male SD rats (n=4);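 as to all read-outs here: four rats in each time-point group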
Description: Group of rats (n=4) were used for each time point. […] The whole brain was quickly removed and dissected into segments consisting of brain stem, thalamus, striatum, hippocampus, cortex, and cerebellum. The remainder of the brain was also collected to determine total brain uptake. […] Tissues were weighed, and the % I.D./g for each tissue was calculated.

SMILES: COc1ccc2c(c1)Sc1cc(N)ccc1N2C [Compound 13a, 7-methoxy-10-methyl-10H-phenothiazin-3-amine]
- melting point: 141.6 to 142.9 °C

SMILES: O=[N+]([O-])c1ccc2c(c1)Sc1ccccc1N2 [SIL3B, 3-nitro-10H-phenothiazine]
- pKi (Aβ1-42 fibrils): 7.15
- pKi (tau fibrils): 7.28

SMILES: O=[N+]([O-])c1ccc2c(c1)Sc1cc(Br)ccc1N2 [SIL22, 3-bromo-7-nitro-10H-phenothiazine]
- pKi (Aβ1-42 fibrils): 6.99
- pKi (tau fibrils): 6.76

SMILES: Cc1ccc2c(c1)sc(-c1ccc(N(C)C)cc1)[n+]2C [ThT, Thioflavin T]
- Bmax (α-synuclein fibrils): 5672 afu

SMILES: COc1ccc2c(c1)Sc1cc([N+](=O)[O-])ccc1N2 [[^11C]SIL5]
- brain uptake (microPET) [1]: high uptake in the brain
- washout kinetics from the brain (microPET) [1]: good washout kinetics
- Biodistribution ([2]; blood, 5 min, male Sprague-Dawley rats): 0.506 ± 0.040 I.D. %/gram
- Biodistribution ([2]; blood, 30 min, male Sprague-Dawley rats): 0.369 ± 0.031 I.D. %/gram
- Biodistribution ([2]; blood, 60 min, male Sprague-Dawley rats): 0.300 ± 0.015 I.D. %/gram
- brain uptake ([2]; 5 min post i.v. injection): 0.953±0.115 % I.D./g
- brain uptake ([2]; 30 min post i.v. injection): 0.287±0.046 % I.D./g
- brain uptake ([2]; 60 min post i.v. injection): 0.158±0.014 % I.D./g
- Biodistribution ([2]; fat, 5 min, male Sprague-Dawley rats): 0.155 ± 0.023 I.D. %/gram
- Biodistribution ([2]; fat, 30 min, male Sprague-Dawley rats): 0.241 ± 0.042 I.D. %/gram
- Biodistribution ([2]; fat, 60 min, male Sprague-Dawley rats): 0.293 ± 0.076 I.D. %/gram
- Biodistribution ([2]; heart, 5 min, male Sprague-Dawley rats): 0.758 ± 0.052 I.D. %/gram
- Biodistribution ([2]; heart, 30 min, male Sprague-Dawley rats): 0.377 ± 0.046 I.D. %/gram
- Biodistribution ([2]; heart, 60 min, male Sprague-Dawley rats): 0.245 ± 0.010 I.D. %/gram
- Biodistribution ([2]; kidney, 30 min, male Sprague-Dawley rats): 0.807 ± 0.086 I.D. %/gram
- Biodistribution ([2]; kidney, 60 min, male Sprague-Dawley rats): 0.559 ± 0.053 I.D. %/gram
- Biodistribution ([2]; liver, 5 min, male Sprague-Dawley rats): 2.198±0.111 I.D. %/gram
- Biodistribution ([2]; liver, 30 min, male Sprague-Dawley rats): 1.349 ± 0.116 I.D. %/gram
- Biodistribution ([2]; liver, 60 min, male Sprague-Dawley rats): 1.116±0.024 I.D. %/gram
- decrease of liver uptake ([2]; liver, from 5 min to 60 min): about 50%
- Biodistribution ([2]; lung, 5 min, male Sprague-Dawley rats): 1.149 ± 0.058 I.D. %/gram
- Biodistribution ([2]; lung, 30 min, male Sprague-Dawley rats): 0.740 ± 0.038 I.D. %/gram
- Biodistribution ([2]; lung, 60 min, male Sprague-Dawley rats): 0.485 ± 0.036 I.D. %/gram
- ability to cross the blood-brain-barrier (BBB) ([2]; male Sprague-Dawley rats, i.v.): able to cross BBB
- Biodistribution ([2]; muscle, 5 min, male Sprague-Dawley rats): 0.271 ± 0.005 I.D. %/gram
- Biodistribution ([2]; muscle, 30 min, male Sprague-Dawley rats): 0.325 ± 0.030 I.D. %/gram
- Biodistribution ([2]; muscle, 60 min, male Sprague-Dawley rats): 0.199 ± 0.016 I.D. %/gram
- Biodistribution ([2]; pancreas, 5 min, male Sprague-Dawley rats): 1.007 ± 0.262 I.D. %/gram
- Biodistribution ([2]; pancreas, 30 min, male Sprague-Dawley rats): 0.506 ± 0.066 I.D. %/gram
- Biodistribution ([2]; pancreas, 60 min, male Sprague-Dawley rats): 0.522 ± 0.036 I.D. %/gram
- Biodistribution ([2]; spleen, 5 min, male Sprague-Dawley rats): 0.659 ± 0.049 I.D. %/gram
- Biodistribution ([2]; spleen, 30 min, male Sprague-Dawley rats): 0.400 ± 0.052 I.D. %/gram
- Biodistribution ([2]; spleen, 60 min, male Sprague-Dawley rats): 0.386 ± 0.027 I.D. %/gram
